Each structure is given as a SMILES string.

In assay [1] the test system is MV4-11 (expressing FLT3/ITD mutant gene). In words: Cell proliferation, Cell Titer-Glo, MV4-11. The following applies: Homo sapiens, MV4-11; incubated for 72 hours; read-out: MV4-11 IC50. It counts as cell-based. As for the experimental part:
(§1) The above cell lines were constructed by our laboratory.
(§2) The number of viable cells was determined by quantification of ATP in living cells using the Cell Titer-Glo® (Promega, USA) chemiluminescence cell viability assay kit.

Assay [2] has as its system MOLM-13 (expressing FLT3/ITD mutant gene and wild-type FLT3 gene). Description: Cell proliferation, Cell Titer-Glo, MOLM-13. It is filed as cell-based. The following applies: Homo sapiens, MOLM-13; incubated for 72 hours; read-out: MOLM-13 IC50. On the procedure: as §1, §2
For orientation: Cellular ATP, detected with luciferase, serves as a proxy for viable cell number.

The subject of assay [3] is TEL-BaF3-FLT3/ITD (stably expressing FLT3/ITD mutant activated kinase). Description: Cell proliferation, Cell Titer-Glo, TEL-BaF3-FLT3/ITD. The following applies: Mus musculus, 72 h, incubated for 72 hours; read-out: TEL-BaF3-FLT3/ITD IC50. It counts as cell-based, mouse. As for the experimental part: as §1, §2
The test system of assay [4] is BaF3-FLT3-ITD-F691L (stably expressing FLT3/ITD F691L mutant activated kinase). In words: Cell proliferation, Cell Titer-Glo, BaF3-FLT3-ITD-F691L. It counts as cell-based. The following applies: Mus musculus; incubated for 72 hours; read-out: BaF3-FLT3-ITD-F691L IC50. As for the experimental part:
as §1, §2

Another assay has as its system pro-B cell BaF3. Description: Cell proliferation, Cell Titer-Glo, BaF3. It is filed as cell-based. The settings on record: Mus musculus, incubated for 72 hours. On the procedure: as §1, §2
For assay [5], the system named is U937 (expressing wild-type FLT3 gene). Description: Cell proliferation, Cell Titer-Glo, U937. It is filed as cell-based, human. The settings on record: Homo sapiens, U-937, 72 h, incubated for 72 hours; read-out: U937 IC50. As for the experimental part: as §1, §2
For assay [6], the system named is OCI-AML-3 (expressing FLT3 A680V mutant gene). In words: Cell proliferation, Cell Titer-Glo, OCI-AML3. It is filed as cell-based. The settings on record: Homo sapiens, incubated for 72 hours. As for the experimental part: as §1, §2
In assay [7] the test system is TEL-BaF3-BMX (stably expressing BMX kinase). In words: Cell proliferation, Cell Titer-Glo, TEL-BaF3-BMX. It is filed as cell-based. The settings on record: Mus musculus; incubated for 72 hours. As for the experimental part: as §1, §2
The test system of assay [8] is TPR-MET-BaF3 (stably expressing MET kinase). Description: Cell proliferation, Cell Titer-Glo, TPR-MET-BaF3. It is filed as cell-based. The settings on record: Mus musculus; incubated for 72 hours. As for the experimental part:
as §1, §2

In assay [9] the test system is TEL-BaF3-BLK (stably expressing BLK kinase). In words: Cell proliferation, Cell Titer-Glo, TEL-BaF3-BLK. It counts as cell-based. The settings on record: Mus musculus; incubated for 72 hours. On the procedure:
as §1, §2

Another assay addresses BTK protein kinase (Homo sapiens (Human), UniProt Q06187). In words: In vitro inhibition activity (enzymatic activity), ADP-Glo, BTK. It is filed as biochemical. The settings on record: ATP 10 μM. On the technique in general: In ADP-Glo the light output rises with the ADP produced.
Assay [10] relates to MOLM-14 (expressing FLT3/ITD mutant gene and wild-type FLT3 gene). In words: Cell proliferation, Cell Titer-Glo, MOLM-14. The following applies: Homo sapiens, MOLM-14; incubated for 72 hours; read-out: MOLM-14 IC50. It counts as cell-based. On the procedure:
as §1, §2

Assay [11] deals with TEL-BaF3-FLT3-D835Y (stably expressing FLT3 D835Y mutant activated kinase). In words: Cell proliferation, Cell Titer-Glo, TEL-BaF3-FLT3-D835Y. It counts as cell-based. The settings on record: Mus musculus; incubated for 72 hours; read-out: TEL-BaF3-FLT3-D835Y IC50. As for the experimental part:
as §1, §2

The subject of assay [12] is TEL-cKIT-BaF3 (stably expressing cKIT kinase). In words: Cell proliferation, Cell Titer-Glo, TEL-cKIT-BaF3. It counts as cell-based. The settings on record: Mus musculus; incubated for 72 hours. On the procedure:
as §1, §2

Assay [13] deals with TEL-BaF3-EGFR (stably expressing EGFR kinase). In words: Cell proliferation, Cell Titer-Glo, TEL-BaF3-EGFR. The following applies: Mus musculus; incubated for 72 hours. It is filed as cell-based. On the procedure: as §1, §2
The subject of assay [14] is TEL-JAK1-BaF3 (stably expressing JAK1 kinase). Description: Cell proliferation, Cell Titer-Glo, TEL-JAK1-BaF3. It is filed as cell-based. The settings on record: Mus musculus; incubated for 72 hours. As for the experimental part: as §1, §2

Sequence of BTK protein kinase (Q06187 whole entry): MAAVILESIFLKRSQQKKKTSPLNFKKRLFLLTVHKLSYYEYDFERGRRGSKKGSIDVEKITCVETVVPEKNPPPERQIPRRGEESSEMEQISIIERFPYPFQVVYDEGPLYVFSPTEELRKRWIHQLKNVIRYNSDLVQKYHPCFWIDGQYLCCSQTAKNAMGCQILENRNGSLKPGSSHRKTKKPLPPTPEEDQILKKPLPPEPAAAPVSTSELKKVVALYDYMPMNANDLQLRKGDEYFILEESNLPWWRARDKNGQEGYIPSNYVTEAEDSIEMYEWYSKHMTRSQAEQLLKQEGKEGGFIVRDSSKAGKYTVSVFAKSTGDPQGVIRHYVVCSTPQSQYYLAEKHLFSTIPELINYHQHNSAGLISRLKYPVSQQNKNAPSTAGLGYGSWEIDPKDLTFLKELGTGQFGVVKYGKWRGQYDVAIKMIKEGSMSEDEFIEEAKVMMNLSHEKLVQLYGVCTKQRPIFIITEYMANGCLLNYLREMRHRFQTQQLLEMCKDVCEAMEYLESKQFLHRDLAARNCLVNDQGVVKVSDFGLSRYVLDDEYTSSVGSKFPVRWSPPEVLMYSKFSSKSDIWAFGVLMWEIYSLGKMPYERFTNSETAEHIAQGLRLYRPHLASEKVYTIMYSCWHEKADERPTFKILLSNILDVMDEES

For `CC(C)[C@@H](N)C(=O)N1CCC[C@@H](n2nc(-c3ccc(Oc4ccccc4)cc3)c3c(N)ncnc32)C1` (stereo in doubt) [Compound 45, (R)-2-amino-1-((R)-3-(4-amino-(4-phenoxyphenyl)-1H-pyrazolo[3,4-d]pyrimidin-1-yl)piperidin-1-yl)-3-methylbutanone], the IC50 was 27 nM in assay [1]; 25 nM in assay [2]; 17 nM in assay [3]; 370 nM in [4]; 1400 nM in the assay on pro-B cell BaF3; above 10000 nM in [5]. Besides, the IC50 turned out to be 4200 nM in assay [6]; 92 nM in assay [7]; 1380 nM in assay [8]; 96 nM in assay [9]; 260 nM at BTK protein kinase.

Turning to `Nc1ncnc2c1c(-c1ccc(Oc3ccccc3)cc1)nn2[C@@H]1CCCN(C(=O)C(F)(F)F)C1` [Compound 2, (R)-1-(3-(4-amino-(4-phenoxyphenyl)-1H-pyrazolo[3,4-d]pyrimidin-1-yl)piperidin-1-yl)-2,2,2-trifluoroethanone], the IC50 stood at 300 nM in [1]; 290 nM in [2]; 720 nM in assay [10]; 120 nM in assay [3]; 130 nM in [11]; 2000 nM in the assay on pro-B cell BaF3. Also, the IC50 in assay [5] was above 10000 nM; in assay [7], 82 nM; in assay [12] it was 1900 nM; in assay [8], 4700 nM; in [13], 6100 nM; in assay [9], 630 nM. The IC50 in [14] amounted to 1400 nM.

With `Nc1ncnc2c1c(-c1ccc(Oc3ccccc3)cc1)nn2[C@@H]1CCCN(S(N)(=O)=O)C1` [Compound 4, (R)-3-(4-amino-(4-phenoxyphenyl)-1H-pyrazolo[3,4-d]pyrimidin-1-yl)piperidin-1-sulfonamide], the IC50 in [1] is 300 nM; in [2] it was 230 nM; in assay [10] it was 680 nM; in [11], 160 nM; in the assay on pro-B cell BaF3 it was above 10000 nM; in assay [7] it was 820 nM. The IC50 was 4900 nM in assay [12]; above 10000 nM in assay [8]; above 10000 nM in [13]; 1400 nM in assay [9]; above 10000 nM in assay [14].

`Nc1ncnc2c1c(-c1ccc(Oc3ccccc3)cc1)nn2[C@@H]1CCCN(C(=O)[C@H](N)Cc2c[nH]c3ccccc23)C1` [Compound 8, (R)-2-amino-1-((R)-3-(4-amino-(4-phenoxyphenyl)-1H-pyrazolo[3,4-d]pyrimidin-1-yl)piperidin-1-yl)-3-(1H-indol-3-yl)propan-1-one]: the IC50 amounted to 270 nM in [1]; 180 nM in assay [2]; 310 nM in assay [10]; 270 nM in [3]; 89 nM in [11]; 620 nM in the assay on pro-B cell BaF3. Further, the IC50 was 1000 nM in assay [5]; 550 nM in [7]; 750 nM in assay [12]; 1400 nM in [13]; 560 nM in assay [9]; 270 nM in assay [14]. Besides, the IC50 against BTK protein kinase came to 254 nM.

On to `Nc1ncnc2c1c(-c1ccc(Oc3ccccc3)cc1)nn2[C@@H]1CCCN(C(=O)[C@H](N)Cc2ccc(O)cc2)C1` [Compound 10, (R)-2-amino-1-((R)-3-(4-amino-(4-phenoxyphenyl)-1H-pyrazolo[3,4-d]pyrimidin-1-yl)piperidin-1-yl)-3-(4-hydroxyphenyl)propan-1-one], for which the IC50 in assay [1] is 61 nM; in assay [2] it was 64 nM; in assay [10], 110 nM; in assay [3], 110 nM; in assay [11], 64 nM; in the assay on pro-B cell BaF3, 1200 nM. Also, the IC50 turned out to be 3400 nM in assay [5]; 840 nM in assay [7]; 1100 nM in [12]; 1400 nM in assay [8]; 3700 nM in [13]; 1000 nM in [9]. In addition, the IC50 turned out to be 400 nM in assay [14] and 128 nM against BTK protein kinase.

`CC(C)C[C@H](N)C(=O)N1CCC[C@@H](n2nc(-c3ccc(Oc4ccccc4)cc3)c3c(N)ncnc32)C1` [Compound 12, (S)-2-amino-1-((R)-3-(4-amino-(4-phenoxyphenyl)-1H-pyrazolo[3,4-d]pyrimidin-1-yl)piperidin-1-yl)-4-methylpentan-1-one]: the IC50 was determined as 64 nM in assay [1]; 46 nM in assay [2]; 77 nM in [10]; 45 nM in assay [3]; 48 nM in assay [11]; 1600 nM in assay [5]. Further, the IC50 in [7] stood at 600 nM; in assay [12], 1000 nM; in [8], 1500 nM; in assay [9] it was 960 nM; in assay [14], 520 nM; on BTK protein kinase it was 349 nM.

Consider `N#CCC(=O)N1CCC[C@@H](n2nc(-c3ccc(Oc4ccccc4)cc3)c3c(N)ncnc32)C1` [Compound 20], for which the IC50 in [1] was 200 nM; in [2], 160 nM; in assay [10], 410 nM; in assay [3], 120 nM; in assay [11], 150 nM; with pro-B cell BaF3, above 10000 nM. The IC50 was above 10000 nM in assay [5]; 47 nM in assay [7]; 3300 nM in assay [12]; above 10000 nM in assay [8]; 4700 nM in assay [13]; 520 nM in assay [9]. The same compound registered an IC50 in [14] above 10000 nM.

`CC(C)C[C@@H](N)C(=O)N1CC[C@@H](n2nc(-c3ccc(Oc4ccccc4)cc3)c3c(N)ncnc32)C1` [Compound 28, (R)-2-amino-1-((R)-3-(4-amino-(4-phenoxyphenyl)-1H-pyrazolo[3,4-d]pyrimidin-1-yl)pyrrolidin-1-yl)-4-methylpentan-1-one]: the IC50 was 120 nM in assay [1]; 1900 nM in assay [2]; 41 nM in assay [3]; 2150 nM with pro-B cell BaF3; 390 nM in assay [7]; 5300 nM in assay [12]. Besides, the IC50 in assay [9] came to 83 nM; in [14], 910 nM.

For `NC(=O)CC[C@@H](N)C(=O)N1CCC[C@@H](n2nc(-c3ccc(Oc4ccccc4)cc3)c3c(N)ncnc32)C1` [Compound 57], the IC50 came out at 60 nM in [1]; 760 nM in assay [2]; 120 nM in assay [3]; 8430 nM in the assay with pro-B cell BaF3; 2300 nM in assay [7]; 3400 nM in assay [12]. For the same compound, the IC50 in assay [9] stood at 540 nM; in assay [14], 4710 nM.

Consider `NCC(=O)N1CC[C@@H](n2nc(-c3ccc(Oc4ccccc4)cc3)c3c(N)ncnc32)C1` [Compound 64], for which the IC50 is 175 nM in assay [1]; 480 nM in assay [2]; 80 nM in [3]; 7590 nM in the assay with pro-B cell BaF3; 90 nM in [7]; 2500 nM in assay [12]. Also, the IC50 in assay [9] turned out to be 9.8 nM; in [14], 1300 nM.

Consider `CN(C)CC(=O)N1CC[C@@H](n2nc(-c3ccc(Oc4ccccc4)cc3)c3c(N)ncnc32)C1` [Compound 65], for which the IC50 in assay [1] is 83 nM; in [2] it was 230 nM; in [3], 41 nM; in the assay on pro-B cell BaF3, 8420 nM; in assay [7], 1200 nM; in assay [12], 3500 nM. Further, the IC50 stood at 360 nM in assay [9] and 890 nM in assay [14].
